The subject of the assay is nude mice, LX-1 lung xenograft intrarenal, tumor weight T/C. Put plainly: NCI In Vivo Anticancer Drug Screen. Data for tumor model Human Lung LX-1 Xenograft (intrarenal inoculation) in NU/NU Swiss (nude) mice. The following applies: endpoint: mean tumor weight change, higher = larger tumour. An outline of the steps: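 In vivo, transplantable tumor; compound vs vehicle arms; tumor size measured; value = T/C.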

[1] abbreviates: dose: 100.0 mg/kg/injection, schedule: Q01DX010 (sc), vehicle: Klucel (hydroxypropylcellulose) (HPC).
[2] abbreviates: dose: 200.0 mg/kg/injection, schedule: Q01DX010 (sc), vehicle: Klucel (hydroxypropylcellulose) (HPC).
Where [3] appears, read: dose: 150.0 mg/kg/injection, schedule: Q04DX003 (sc), vehicle: saline with Tween-80.
[4] abbreviates: dose: 300.0 mg/kg/injection, schedule: Q04DX003 (sc), vehicle: saline with Tween-80.
[5] abbreviates: dose: 600.0 mg/kg/injection, schedule: Q04DX003 (sc), vehicle: saline with Tween-80.
Setting [6] is: dose: 1200.0 mg/kg/injection, schedule: Q04DX003 (sc), vehicle: saline with Tween-80.
The mark [7] stands for this setting: dose: 200.0 mg/kg/injection, schedule: Q04DX003 (sc), vehicle: saline with Tween-80.
Where [8] appears, read: dose: 50.0 mg/kg/injection, schedule: Q04DX003 (sc), vehicle: saline.

Data on 22 compounds can be found in PubChem BioAssay AID264 (DTP/NCI, 2004).

Where “and” joins values, the source holds several entries; their conditions need not be identical. Equal values may be shown once. Records with an inconclusive call do not appear. Numbered stars: 1 amine (or outer) side, 2 acyl side, 3 side chain; on linkers, the order of the positions; unused ones are H or OH. Bridge positions count the residues as written; N and C are the ends. Square brackets hold non-standard residues; d marks the D form. Peptide text beside a SMILES is read from it. I, II: the chains in the order shown. Actinocin(9to1) = Cc1c2oc3c(C)ccc(C(=O)[*:1])c3nc-2c(C(=O)[*:2])c(N)c1=O; aThr = C[C@H](O)[C@H](N)C(=O)O; NMeV = CN[C@H](C(=O)O)C(C)C; Sar = CNCC(=O)O

In the case of `Cc1c2oc3c(C)ccc(C(=O)N[C@@H]4C(=O)N[C@H](C(C)C)C(=O)N5CCC[C@H]5C(=O)N(C)CC(=O)N(C)[C@@H](C(C)C)C(=O)O[C@H]4C)c3nc-2c(C(=O)N[C@@H]2C(=O)N[C@H](C(C)C)C(=O)N3CCC[C@H]3C(=O)N(C)CC(=O)N(C)[C@@H](C(C)C)C(=O)O[C@H]2C)c(N)c1=O` (I: [aThr][dV]P[Sar][NMeV] / II: [aThr][dV]P[Sar][NMeV]; ester I:1-I:C, II:1-II:C; linker I:N-II:N via Actinocin(9to1)), the T/C runs as follows: (dose: 100.0 micrograms/kg/injection, schedule: Q01DX010 (sc), vehicle: saline) 13 % of control and 24 % of control; (dose: 200.0 micrograms/kg/injection, schedule: Q01DX010 (sc), vehicle: saline) 13 % of control.
On to `C[C@]12CCC(=O)C(O)=C1CC[C@@H]1[C@@H]2CC[C@]2(C)C(=O)CC[C@@H]12`, for which the T/C by setting is: (dose: 50.0 mg/kg/injection, schedule: Q01DX010 (sc), vehicle: Klucel (hydroxypropylcellulose) (HPC)) 43 % of control; under setting [1], 30 % of control; under setting [2], 47 % of control; (dose: 400.0 mg/kg/injection, schedule: Q01DX010 (sc), vehicle: Klucel (hydroxypropylcellulose) (HPC)) 48 % of control.
As to `CC1(C)OC2C(COC(=O)c3ccc([N+](=O)[O-])cc3)OC(NC(=O)N(CCCl)N=O)C2O1` (centres undefined), the T/C runs as follows: (dose: 75.0 mg/kg/injection, schedule: Q04DX003 (sc), vehicle: saline with Tween-80) 84 % of control; under setting [3], 43 % of control; under setting [4], 41 % of control; under setting [5], 27 % of control.
For `O=[N+]([O-])c1ccc(N2CCOCC2)c2c1no[n+]2[O-]`, the T/C is 101 % of control under setting [3], 57 % of control under setting [4], 77 % of control under setting [5] and 98 % of control under setting [6].
On to `CCCCCCCCCCCCCCCC(=O)OCC1OC(n2ccc(N)nc2=O)C(O)C1O` (centres undefined), for which the T/C by setting is: (dose: 18.75 mg/kg/injection, schedule: Q04DX003 (sc), vehicle: saline with Tween-80) 55 % of control; (dose: 37.5 mg/kg/injection, schedule: Q04DX003 (sc), vehicle: saline with Tween-80) 43 % of control and 60 % of control; under setting [7], 70 % of control.
As for `CS(=O)(=O)OCCCCOS(C)(=O)=O`, the T/C (dose: 25.0 mg/kg/injection, schedule: Q01DX010 (sc), vehicle: saline with Tween-80) was 41 % of control.
As for `Nc1nc(=O)n(C2OC(CO)C(O)C2O)cc1F` (centres undefined), the T/C reads like this: (dose: 150.0 mg/kg/injection, schedule: Q04DX003 (sc), vehicle: Klucel (hydroxypropylcellulose) (HPC)) 74 % of control; (dose: 300.0 mg/kg/injection, schedule: Q04DX003 (sc), vehicle: Klucel (hydroxypropylcellulose) (HPC)) 68 % of control; (dose: 600.0 mg/kg/injection, schedule: Q04DX003 (sc), vehicle: Klucel (hydroxypropylcellulose) (HPC)) 84 % of control; (dose: 1200.0 mg/kg/injection, schedule: Q04DX003 (sc), vehicle: Klucel (hydroxypropylcellulose) (HPC)) 48 % of control.
In the case of `CCN=C=NCCCN(C)C`, the T/C is, setting by setting: (dose: 25.0 mg/kg/injection, schedule: Q04DX003 (sc), vehicle: saline) 99 % of control; under setting [8], 102 % of control; (dose: 100.0 mg/kg/injection, schedule: Q04DX003 (sc), vehicle: saline) 84 % of control.
For `Clc1ccc2nnnn2n1`, the T/C (dose: 50.0 mg/kg/injection, schedule: Q04DX003 (sc), vehicle: saline with Tween-80) is 72 % of control; the T/C (dose: 100.0 mg/kg/injection, schedule: Q04DX003 (sc), vehicle: saline with Tween-80) is 88 % of control; the T/C under setting [7] was 85 % of control; the T/C (dose: 400.0 mg/kg/injection, schedule: Q04DX003 (sc), vehicle: saline with Tween-80) was 93 % of control.
As to `CCCCCCCC(=O)OCC(=O)[C@]1(O)Cc2c(O)c3c(c(O)c2[C@@H](OC2CC(N)C(O)C(C)O2)C1)C(=O)c1c(OC)cccc1C3=O` (some centres undefined), the T/C runs as follows: (dose: 2.0 mg/kg/injection, schedule: Q01DX010 (sc), vehicle: saline) 104 % of control; (dose: 4.0 mg/kg/injection, schedule: Q01DX010 (sc), vehicle: saline) 173 % of control.
For `CC1(C)N=C(N)N=C(N)N1c1ccc(F)c(C(F)(F)F)c1`, the T/C reads like this: (dose: 3.13 mg/kg/injection, schedule: Q01DX010 (sc), vehicle: saline) 76 % of control; (dose: 12.5 mg/kg/injection, schedule: Q01DX010 (sc), vehicle: saline) 118 % of control and 122 % of control; (dose: 25.0 mg/kg/injection, schedule: Q01DX010 (sc), vehicle: saline) 33 % of control.
For `COc1cc(C(=O)N/N=C/c2cccc([N+](=O)[O-])c2)cc(OC)c1OC`, under setting [3], the T/C is 86 % of control.
As for `Nc1nc(=S)c2ncn(C3CC(O)C(CO)O3)c2[nH]1` (centres undefined), the T/C (dose: 0.31 mg/kg/injection, schedule: Q01DX010 (sc), vehicle: saline with Tween-80) is 108 % of control; the T/C (dose: 0.63 mg/kg/injection, schedule: Q01DX010 (sc), vehicle: saline with Tween-80) was 66 % of control; the T/C (dose: 1.25 mg/kg/injection, schedule: Q01DX010 (sc), vehicle: saline with Tween-80) is 85 % of control; the T/C (dose: 2.5 mg/kg/injection, schedule: Q01DX010 (sc), vehicle: saline with Tween-80) is 83 % of control.
With `C=CCNc1nc2c(s1)CCc1cc(OC)c(OC)cc1-2`, the T/C under setting [3] is 89 % of control.
For `C[CH2][Pb]([CH2]C)([CH2]C)[O]C(=O)COc1ccccc1`, the T/C by setting is: (dose: 9.0 mg/kg/injection, schedule: Q04DX003 (sc), vehicle: saline with Tween-80) 47 % of control; (dose: 18.0 mg/kg/injection, schedule: Q04DX003 (sc), vehicle: saline with Tween-80) 47 % of control.
With `CN(C)N=Nc1ccc(S(N)(=O)=O)cc1`, the T/C by setting is: under setting [1], 1 % of control and 8 % of control; under setting [2], 3 % of control and 9 % of control; (dose: 800.0 mg/kg/injection, schedule: Q01DX010 (sc), vehicle: Klucel (hydroxypropylcellulose) (HPC)) 16 % of control.
Take `O=c1[nH]cnc2c1ccn2C1OC(CO)C(O)C1O` (centres undefined): the T/C reads like this: (dose: 12.5 mg/kg/injection, schedule: Q04DX003 (sc), vehicle: saline) 88 % of control; under setting [8], 47 % of control.
As for `ClCCCN1CCN(CCCCl)CC1`, for the setting “dose: 150.0 mg/kg/injection, schedule: Q04DX003 (sc), vehicle: distilled water + alcohol”, the T/C is 90 % of control.
Regarding `CC(=S)NC(O)C(=O)c1ccccc1` (centres undefined), the T/C under setting [3] was 109 % of control, the T/C under setting [5] was 63 % of control and the T/C under setting [6] is 99 % of control.
Turning to `COc1ccc(-c2cc(C(=O)Nc3cc(C(F)(F)F)cc(C(F)(F)F)c3)c3ccccc3n2)cc1`, the T/C is, setting by setting: (dose: 150.0 mg/kg/injection, schedule: Q04DX003 (ip), vehicle: DMSO) 75 % of control; (dose: 300.0 mg/kg/injection, schedule: Q04DX003 (ip), vehicle: DMSO) 104 % of control; (dose: 600.0 mg/kg/injection, schedule: Q04DX003 (ip), vehicle: DMSO) 68 % of control.
Take `Cc1c(N)nc(C(CC(N)=O)NCC(N)C(N)=O)nc1C(=O)NC(C(=O)NC(C)C(O)CC(=O)NC(C(=O)NC(OC1OC(C)C(N)C(O)C1O)C(O)c1nc(-c2nc(C(=O)NCCCC(N)CC(=O)NCCCNCCCCN)cs2)cs1)C(C)O)C(OC1OC(CO)C(O)C(O)C1OC1OC(CO)C(O)C(OC(N)=O)C1O)c1cnc[nH]1` (centres undefined): the T/C (dose: 16.0 mg/kg/injection, schedule: Q04DX003 (sc), vehicle: saline) is 73 % of control.
On to `O=C(O)CCCCCCCC(=O)O`, for which the T/C is 105 % of control (dose: 150.0 mg/kg/injection, schedule: Q04DX003 (sc), vehicle: distilled water + Tween-80); 79 % of control (dose: 300.0 mg/kg/injection, schedule: Q04DX003 (sc), vehicle: distilled water + Tween-80); 60 % of control (dose: 600.0 mg/kg/injection, schedule: Q04DX003 (sc), vehicle: distilled water + Tween-80); 50 % of control (dose: 1200.0 mg/kg/injection, schedule: Q04DX003 (sc), vehicle: distilled water + Tween-80).
